Counter-ions that a name gives are not always drawn. Like-named read-outs stand apart in the source and are kept apart here.
Experiments:
MERS-CoV [1] = details: read-out: EC50, MERS-CoV infection; cited from earlier work
MERS-CoV [2] = details: cited from earlier work
MERS-CoV [3] = type: cell-based, MERS-CoV Jordan strain (Hu/Jordan-N3/2012)
Huh 7 cells = details: cited from earlier work
Vero E6 cells = details: cited from earlier work
in vitro = details: human
MERS-CoV [4] = experiment: microbe, parasite or virus in culture; type: cell-based, MERS-CoV Jordan strain (Hu/Jordan-N3/2012); details: for EC50: Middle East respiratory syndrome-related coronavirus
MERS-CoV [5] = type: cell-based, MERS-CoV Jordan strain (Hu/Jordan-N3/2012); remark: listed apart in the source
MERS-CoV [6] = type: cell-based, MERS-CoV Jordan strain (Hu/Jordan-N3/2012); remark: listed apart in the source
MERS-CoV and SARS-CoV = details: cited from earlier work
SARS-CoV = details: cited from earlier work

Compound	EC50 (MERS-CoV [1]) [µM]	EC50 (MERS-CoV [2]) [µM]	virus yield reduction (TCID50) (MERS-CoV [3])	CC50 (Huh 7 cells) [µM]	cytotoxicity (in words) (Vero E6 cells)	CC50 (in vitro) [µM]	selectivity index (SI = CC50÷EC50) (MERS-CoV [4])	EC50 (MERS-CoV [4]; read-out: EC50, antiviral activity against MERS-CoV) [µM]	activity against MERS-CoV infection by virus yield reduction (in words) (MERS-CoV [5])	virus yield reduction (TCID50), drop (MERS-CoV [5]) [log10]	virus yield reduction (TCID50) (MERS-CoV [6])	cytotoxicity (in words) (immature MDDCs)	toxicity (in words) (MERS-CoV and SARS-CoV)	EC50 (SARS-CoV) [µM]	EC50, antiviral activity against MERS-CoV (MERS-CoV [4])	EC50 (MERS-CoV [4]) [µM]
CN(C)CCCN1c2ccccc2Sc2ccc(Cl)cc21 [CPZ, Chlorpromazine hydrochloride]	4.9	9.5	~2 log10	21.3	low cytotoxicity	25.6	1.9	13.6	active	3.1	~2 log10	high cytotoxicity				
CCN(CC)CCCC(C)Nc1ccnc2cc(Cl)ccc12 (stereo not drawn) [CQ, chloroquine diphosphate salt]		6.3	no virus yield reduction						not active		no virus yield reduction		low toxicity			
CN(C)CCOc1ccc(/C(=C(/CCCl)c2ccccc2)c2ccccc2)cc1 [TOMF, Toremifene citrate]			1–1.5 log10			22.5			not active		1–1.5 log10			12	too low to determine an EC50	38

Source: paper PMC5864050 (PLoS ONE, 2018)
